Where two headings read alike, the source gives them in different places.
Experiments:
MAP4K1 (HPK1) = biological target: T1, MAP4K1 (HPK1) (Homo sapiens, UniProt Q92918); test: Inhibition of MAP4K1 biochemical enzymatic activity (EZReader 2 electrophoretic mobility shift); details: HPK1 (Invitrogen), S6K2tide 1.5 μM, 120 min; ATP 26 μM or 1000 μM (not given)
T1 construct: purchased Invitrogen
Method in brief: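 Untreated enzyme (0.1-15 nM) was incubated with 1.5 μM fluorescent peptide and 20-1000 μM ATP (apparent Km or 1 mM) in HEPES pH 7.5, MgCl2, DTT, Brij 35 at 25° C. for 60-180 min, with 1% DMSO and a 10-point 4-fold compound series. After an EDTA stop, product/substrate peptide peak ratio was read by mobility shift.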

[1] = tested on: Primary T Cell (expanded CD3+ T cells); test: T cell enhancement of cytokines: IL2 measurement (HTRF) in stimulated expanded CD3+ T cells; assay type: cell-based, human; details: plate-bound anti-CD3 and soluble anti-CD28, 24 h, IL2 by HTRF, read-out: IL-2 Primary T Cell EC50
Protocol: T cells are isolated from whole blood of healthy donors by immunomagnetic negative selection following manufacture's protocol (StemCell Technologies, human T cell isolation kit). Purity of isolated cells is assessed by flow cytometry and yields 95-98% CD3^+ T cells. For expansion of T cells, 1×10^6 cells/well are plated in serum free cell expansion media (ThermoFisher) containing 30 U of recombinant human IL2 (R&D) and stimulated with 25 ul of CD3/CD28 beads (Invitrogen) in 24 well plates for 3-4 days. T cells are then expanded in 175 cm flasks and maintained at a cell density of 1 to 2.5×10^6 cells/ml days by addition of ⅔ of fresh media every 2-3 days. After 10-14 days, cells are frozen in BamBanker freezing media (Thermo) and stored in liquid nitrogen.
For IL2 measurement, expanded CD3^+ T cells are dispensed at 100K cells/well (cultured in X-VIVO 10 Serum-free media) and are stimulated with plate-bound anti-CD3 and soluble anti-CD28 in the presence of vehicle or compound of the disclosure at various concentrations for 24 h. As outlined in the manufacturer's protocol (Cisbio), 16 μL of conditioned media is transferred to a white 384-well low volume plate. Following a 24 h incubation with the anti-IL2 antibodies, the homogenous time resolved fluorescence (HTRF) is measured.

T1 sequence (Q92918 whole entry): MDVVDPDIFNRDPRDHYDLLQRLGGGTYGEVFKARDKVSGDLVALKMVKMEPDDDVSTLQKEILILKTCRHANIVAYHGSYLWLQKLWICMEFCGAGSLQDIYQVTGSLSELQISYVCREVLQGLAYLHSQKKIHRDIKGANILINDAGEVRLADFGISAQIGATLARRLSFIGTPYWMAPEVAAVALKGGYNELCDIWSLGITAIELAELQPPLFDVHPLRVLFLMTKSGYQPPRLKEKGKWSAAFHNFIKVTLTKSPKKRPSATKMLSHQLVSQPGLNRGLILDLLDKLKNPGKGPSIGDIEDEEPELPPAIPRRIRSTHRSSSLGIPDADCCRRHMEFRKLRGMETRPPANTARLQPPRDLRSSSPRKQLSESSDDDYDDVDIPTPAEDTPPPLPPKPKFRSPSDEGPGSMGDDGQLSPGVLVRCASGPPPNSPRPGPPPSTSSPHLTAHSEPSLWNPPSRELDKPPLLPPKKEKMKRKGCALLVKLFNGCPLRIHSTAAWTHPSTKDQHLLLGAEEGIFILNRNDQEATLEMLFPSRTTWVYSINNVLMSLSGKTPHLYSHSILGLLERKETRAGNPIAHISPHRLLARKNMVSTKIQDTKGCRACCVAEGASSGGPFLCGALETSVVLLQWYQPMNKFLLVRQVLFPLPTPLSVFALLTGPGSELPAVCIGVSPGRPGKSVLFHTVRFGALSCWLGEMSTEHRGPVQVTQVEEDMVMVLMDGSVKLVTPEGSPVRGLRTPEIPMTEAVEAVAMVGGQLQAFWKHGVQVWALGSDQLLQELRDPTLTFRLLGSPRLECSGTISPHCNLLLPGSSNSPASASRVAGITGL

Row | Compound | IC50 (MAP4K1 (HPK1)) [nM] | EC50 ([1]; Homo sapiens, T-cell, 24 h) [nM] | EC50 [1] [nM]
1 | CC[C@@](C)(N)c1cnc(O[C@@H]2C[C@H](S(C)(=O)=O)[C@H]2C)c2cnc(Nc3ccc4c(n3)[C@@H](C)[C@H](C)OC4=O)cc12 (single isomer, unassigned) [Compound 150] | 0.32 | 14 | 
2 | C[C@@H]1c2nc(Nc3cc4c(C(C)(C)N)ccc(O[C@H]5C[C@@H](S(C)(=O)=O)C5)c4cn3)ccc2C(=O)OC1(C)C [Compound 27] | 0.08 | 15 | 
3 | C[C@@H]1OC(=O)c2ccc(Nc3cc4c([C@](C)(N)C5CC5)cnc(O[C@H]5C[C@@H](S(C)(=O)=O)C5)c4cn3)nc2[C@H]1C [Compound 60] | 0.19 | 10 | 
4 | C[C@@H]1c2nc(Nc3cc4c(C(C)(C)N)cnc(OC5CS(=O)(=O)C5)c4cn3)ccc2C(=O)OC1(C)C [Compound 3] | 0.12 | 39 | 
5 | CC(C)(N)c1cnc(O[C@H]2C[C@@H](S(C)(=O)=O)C2)c2cnc(Nc3ccc4c(n3)C(C)(C)COC4=O)cc12 [Compound 11] | 0.29 | 39 | 
6 | C[C@H]1[C@H](Oc2ncc(C(C)(C)N)c3cc(Nc4ccc5c(n4)[C@@H](C)C(C)(C)OC5=O)ncc23)C[C@@H]1S(C)(=O)=O (single isomer, unassigned) [Compound 69] | 0.1 | 15 | 
7 | CC[C@@](C)(N)c1cnc(O[C@H]2C[C@@H](S(C)(=O)=O)C2)c2cnc(Nc3ccc4c(n3)[C@@H](C)C(C)(C)OC4=O)cc12 [Compound 78] | 0.14 | 7 | 
8 | C[C@@H]1OC(=O)c2ccc(Nc3cc4c(C(C)(C)N)cnc(OC5CN(S(C)(=O)=O)C5)c4cn3)nc2[C@H]1C [Compound 15] | 0.1 | 13 | 
9 | CC[C@@](C)(N)c1cnc(O[C@H](C)C[C@@H](C)S(C)(=O)=O)c2cnc(Nc3ccc4c(n3)[C@@H](C)C(C)(C)OC4=O)cc12 [Compound 129] | 0.16 | 7 | 
10 | C[C@H](C[C@@H](C)S(C)(=O)=O)Oc1ncc(C(C)(C)N)c2cc(Nc3ccc4c(n3)C3(CC3)[C@@H](C)OC4=O)ncc12 (single isomer, unassigned) [Compound 65] | 0.2 | 11 | 
11 | CCS(=O)(=O)[C@H]1C[C@@H](Nc2ncc(C(C)(C)N)c3cc(Nc4ccc5c(n4)[C@@H](C)C(C)(C)OC5=O)ncc23)C1 [Compound 64] | 0.21 | 105 | 
12 | C[C@@H]1OC(=O)c2ccc(Nc3cc4c(C(C)(C)N)cnc(O[C@H]5C[C@@H](S(=O)(=O)N(C)C)C5)c4cn3)nc2[C@H]1C [Compound 81] | 0.1 | 18 | 
13 | C[C@@H]1c2nc(Nc3cc4c(C(N)C5CC5)cnc(O[C@H]5C[C@@H](S(C)(=O)=O)C5)c4cn3)ccc2C(=O)OC1(C)C (single isomer, unassigned) [Compound 62, (R)-2-((5-((S or R)-Amino(cyclopropyl)methyl)-8-(cis-3-(methylsulfonyl)cyclobutoxy)-2,7-naphthyridin-3-yl)amino)-7,7,8-trimethyl-7,8-dihydro-5H-pyrano[4,3-b]pyridin-5-one] | 0.33 | 76 | 
14 | COC[C@@](C)(N)c1cnc(O[C@H]2C[C@@H](CS(C)(=O)=O)C2)c2cnc(Nc3ccc4c(n3)[C@@H](C)C(C)(C)OC4=O)cc12 [Compound 140] | 0.33 | 33 | 
15 | CC[C@@](C)(N)c1cnc(O[C@H](C)CCS(C)(=O)=O)c2cnc(Nc3ccc4c(n3)[C@@H](C)C(C)(C)OC4=O)cc12 [Compound 94] | 0.14 | 26 | 
16 | CC[C@@](C)(N)c1cnc(O[C@H](C)C[C@@H](C)S(C)(=O)=O)c2cnc(Nc3ccc4c(n3)[C@@H](C)[C@H](C)OC4=O)cc12 [Compound 90] | 0.11 | 3 | 
17 | C[C@@H]1c2nc(Nc3cc4c(C(C)(C)N)cnc(O[C@H]5C[C@@H](S(C)(=O)=O)C5)c4cn3)ccc2C(=O)OC1(C)C [Compound 42, (R)-2-((5-(2-Aminopropan-2-yl)-8-(cis-3-(methylsulfonyl)cyclobutoxy)-2,7-naphthyridin-3-yl)amino)-7,7,8-trimethyl-7,8-dihydro-5H-pyrano[4,3-b]pyridin-5-one] | 0.09 | 9 | 
18 | C[C@@H]1c2nc(Nc3cc4c(C(C)(C)N)cnc(N[C@H]5C[C@@H](S(C)(=O)=O)C5)c4cn3)ccc2C(=O)OC1(C)C [Compound 28] | 0.14 | 250 | 

Row | Compound | IC50 (MAP4K1 (HPK1)) [nM] | EC50 ([1]; Homo sapiens, T-cell, 24 h) [nM] | EC50 [1] [nM]
19 | CCS(=O)(=O)[C@H]1C[C@@H](Oc2ncc(C(C)(C)N)c3cc(Nc4ccc5c(n4)[C@@H](C)[C@H](C)OC5=O)ncc23)C1 [Compound 39, (7S,8R)-2-((5-(2-Aminopropan-2-yl)-8-((cis)-3-(ethylsulfonyl)cyclobutoxy)-2,7-naphthyridin-3-yl)amino)-7,8-dimethyl-7,8-dihydro-5H-pyrano[4,3-b]pyridin-5-one] | 0.13 | 11 | 
20 | CC[C@@H](N)c1cnc(O[C@H]2C[C@@H](S(=O)(=O)CC)C2)c2cnc(Nc3ccc4c(n3)[C@@H](C)C(C)(C)OC4=O)cc12 (single isomer, unassigned) [Compound 74] | 0.33 | 51 | 
21 | CC[C@@](C)(N)c1cnc(O[C@H](C)CCS(C)(=O)=O)c2cnc(Nc3ccc4c(n3)C3(CC3)C(C)(C)OC4=O)cc12 [Compound 105] | 0.37 | 41 | 
22 | CCS(=O)(=O)[C@H](C)C[C@@H](C)Oc1ncc(C(C)(C)N)c2cc(Nc3ccc4c(n3)[C@@H](C)C(C)(C)OC4=O)ncc12 [Compound 128] | 0.16 | 36 | 
23 | CC[C@@](C)(N)c1cnc(O[C@@H](C)CCS(C)(=O)=O)c2cnc(Nc3ccc4c(n3)[C@@H](C)[C@H](C)OC4=O)cc12 [Compound 53] | 0.11 | 21 | 
24 | CC[C@@](C)(N)c1cnc(O[C@H](C)C[C@@H](C)S(C)(=O)=O)c2cnc(Nc3ccc4c(n3)[C@H](C)COC4=O)cc12 (single isomer, unassigned) [Compound 47] | 0.38 | 53 | 
25 | CC[C@@](C)(N)c1cnc(O[C@H](C)CCS(=O)(=O)CC)c2cnc(Nc3ccc4c(n3)[C@@H](C)[C@H](C)OC4=O)cc12 (single isomer, unassigned) [Compound 92] | 0.14 | 15 | 
26 | CC[C@@](C)(N)c1cnc(O[C@H](C)C[C@@H](C)S(C)(=O)=O)c2cnc(Nc3ccc4c(n3)C(C)(C)COC4=O)cc12 [Compound 88] | 0.21 | 23 | 
27 | CCS(=O)(=O)CC[C@@H](C)Oc1ncc(C(C)(C)N)c2cc(Nc3ccc4c(n3)[C@@H](C)C(C)(C)OC4=O)ncc12 (single isomer, unassigned) [Compound 99] | 0.39 |  | 72
28 | C[C@@H]1c2nc(Nc3cc4c(C(C)(C)N)cnc(O[C@H]5C[C@@H](S(=O)(=O)N(C)C)C5)c4cn3)ccc2C(=O)OC1(C)C [Compound 118] | 0.11 | 27 | 
29 | CC[C@@](C)(N)c1cnc(O[C@@H](C)CCS(C)(=O)=O)c2cnc(Nc3ccc4c(n3)[C@@H](C)C(C)(C)OC4=O)cc12 [Compound 95] | 0.08 | 52 | 
30 | CCS(=O)(=O)C[C@H]1C[C@@H](Oc2ncc(C(C)(C)N)c3cc(Nc4ccc5c(n4)[C@@H](C)C(C)(C)OC5=O)ncc23)C1 (single isomer, unassigned) [Compound 112] | 0.13 | 25 | 
31 | CC[C@@](C)(N)c1cnc(O[C@H](C)C[C@@H](C)S(C)(=O)=O)c2cnc(Nc3ccc4c(n3)C3(CC3)[C@@H](C)OC4=O)cc12 (single isomer, unassigned) [Compound 104] | 0.17 | 10 | 
32 | C[C@@H]1COC(=O)c2ccc(Nc3cc4c(C(C)(C)N)cnc(O[C@H]5C[C@@H](S(C)(=O)=O)C5)c4cn3)nc21 (single isomer, unassigned) [Compound 6] | 0.18 | 7 | 
33 | C[C@@H]1COC(=O)c2ccc(Nc3cc4c(C(C)(C)N)cnc(O[C@H]5C[C@@H](S(=O)(=O)C6CC6)C5)c4cn3)nc21 (single isomer, unassigned) [Compound 26] | 0.26 | 17 | 
34 | CC[C@@](C)(N)c1cnc(O[C@H](C)C[C@@H](C)S(C)(=O)=O)c2cnc(Nc3ccc4c(n3)[C@@H](C)[C@@H](C)OC4=O)cc12 (single isomer, unassigned) [Compound 152] | 0.29 | 11 | 
35 | C[C@H](CCS(C)(=O)=O)Oc1ncc(C(C)(C)N)c2cc(Nc3ccc4c(n3)C3(CC3)[C@@H](C)OC4=O)ncc12 (single isomer, unassigned) [Compound 29] | 0.29 | 24 | 
36 | C[C@@H]1OC(=O)c2ccc(Nc3cc4c(C(C)(C)N)cnc(O[C@@H](C)CCS(C)(=O)=O)c4cn3)nc2[C@H]1C (single isomer, unassigned) [Compound 18] | 0.33 | 43 | 

— patent US12202844B2, “MAP4K1 inhibitors” (Blueprint Medicines Corporation, priority 2021, dated 2025)
